Tested on: pancreatic adenocarcinoma
Assay: Overall survival (OS) by baseline plasma analytes, CALGB 80303 gemcitabine +/- bevacizumab
Format: in vivo, human
Source text: Eligibility of patients evaluated in this correlative analysis was described previously (Kindler et al., J Clin Oncol 2010 28(22):3617-3622). Briefly, eligible patients had histologically- or cytologically-confirmed pancreatic adenocarcinoma not amenable to curative surgery. Measurable disease was not required. Prior chemotherapy for metastatic disease was not permitted. […] Prior radiation was allowed if it was completed at least 4 weeks prior to enrollment and there was disease outside the radiation port. Patients were required to be at least 18 years of age and have a life expectancy of at least 12 weeks. Written informed consent was obtained from all patients participating in this correlative analysis.
Gemcitabine (1,000 mg/m^2) was administered intravenously over 30 minutes on days 1, 8, and 15 of a 28-day cycle. […]
Patterns of expression were analyzed at baseline and were correlated with overall survival (OS) and progression free survival (PFS) using univariate Cox proportional hazard regression models and multivariate Cox models with leave-one-out cross validation. Spearman's rank correlation coefficients were calculated for all pairs of analytes. […]
The primary endpoint of interest will be overall survival (OS) with correlation to the blood analytes; however, progression-free survival (PFS) was evaluated. […]

bevacizumab: monoclonal antibody against VEGF
benefit from bevacizumab (overall survival) (VEGF-D above Q1, more than 1092.35 pg/mL, p=0.035): predicted for lack of benefit
benefit from bevacizumab (overall survival) (VEGF-D below Q1, less than 1092.35 pg/mL, p=0.033): predicted for benefit

From patent US10613091B2, “Methods of developing a prognosis for pancreatic cancer and predicting responsiveness to cancer therapeutics” (DUKE UNIVERSITY, priority 2011, dated 2020)
